Data published in ChEMBL document CHEMBL4152224, “The Identification of Potent, Selective, and Orally Available Inhibitors of Ataxia Telangiectasia Mutated (ATM) Kinase: The Discovery of AZD0156 (8-{6-[3-(Dimethylamino)propoxy]pyridin-3-yl}-3-methyl-1-(tetrahydro-2 H-pyran-4-yl)-1,3-dihydro-2 H-imidazo[4,5- c]quinolin-2-one)” (J Med Chem, 2018).
Converted amounts (≈) assume the structure as drawn.

How the values were obtained:
[1] = target: Voltage-gated inwardly rectifying potassium channel KCNH2 (Homo sapiens, UniProt Q12809); test: Inhibition of human ERG by electrophysiology assay
Voltage-gated inwardly rectifying potassium channel KCNH2, sequence (Q12809 whole entry): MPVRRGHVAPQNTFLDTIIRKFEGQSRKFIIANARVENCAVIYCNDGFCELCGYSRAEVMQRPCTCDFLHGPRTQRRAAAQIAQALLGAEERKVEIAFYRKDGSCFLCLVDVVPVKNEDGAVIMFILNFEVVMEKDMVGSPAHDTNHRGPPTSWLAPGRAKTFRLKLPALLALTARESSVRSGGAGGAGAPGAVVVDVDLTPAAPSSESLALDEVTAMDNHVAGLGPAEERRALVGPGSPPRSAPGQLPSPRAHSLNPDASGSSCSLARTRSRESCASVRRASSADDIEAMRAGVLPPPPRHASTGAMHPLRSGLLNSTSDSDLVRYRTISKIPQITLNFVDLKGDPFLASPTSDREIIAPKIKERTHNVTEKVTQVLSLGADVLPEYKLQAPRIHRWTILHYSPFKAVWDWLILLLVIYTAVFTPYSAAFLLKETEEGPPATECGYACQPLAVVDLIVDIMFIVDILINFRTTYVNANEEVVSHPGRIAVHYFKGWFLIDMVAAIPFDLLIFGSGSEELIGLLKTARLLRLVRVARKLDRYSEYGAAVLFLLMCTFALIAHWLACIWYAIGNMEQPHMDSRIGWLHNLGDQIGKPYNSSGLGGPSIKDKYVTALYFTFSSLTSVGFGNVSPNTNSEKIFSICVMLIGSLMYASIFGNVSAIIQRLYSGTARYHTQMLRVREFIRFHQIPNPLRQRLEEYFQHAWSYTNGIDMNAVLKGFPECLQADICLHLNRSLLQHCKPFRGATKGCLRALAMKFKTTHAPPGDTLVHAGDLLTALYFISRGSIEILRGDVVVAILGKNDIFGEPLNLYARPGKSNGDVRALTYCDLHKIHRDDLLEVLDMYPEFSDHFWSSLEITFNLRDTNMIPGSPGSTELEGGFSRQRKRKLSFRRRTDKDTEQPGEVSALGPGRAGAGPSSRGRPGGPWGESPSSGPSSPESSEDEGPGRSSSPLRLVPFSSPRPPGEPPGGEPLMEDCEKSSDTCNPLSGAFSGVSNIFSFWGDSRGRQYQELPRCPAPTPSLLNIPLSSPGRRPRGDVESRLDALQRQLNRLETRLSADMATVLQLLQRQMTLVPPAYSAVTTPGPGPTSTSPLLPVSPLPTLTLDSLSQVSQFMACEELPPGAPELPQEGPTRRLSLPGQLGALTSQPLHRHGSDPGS

in vitro = conditions: dog, MDCK-MDR1
Description: Efflux ratio of apparent permeability across basolateral to apical over apical to basolateral side in MDCK cells overexpressing MDR1

[2] = target: Serine/threonine-protein kinase ATR (Homo sapiens, UniProt Q13535)
Serine/threonine-protein kinase ATR, sequence (Q13535 whole entry): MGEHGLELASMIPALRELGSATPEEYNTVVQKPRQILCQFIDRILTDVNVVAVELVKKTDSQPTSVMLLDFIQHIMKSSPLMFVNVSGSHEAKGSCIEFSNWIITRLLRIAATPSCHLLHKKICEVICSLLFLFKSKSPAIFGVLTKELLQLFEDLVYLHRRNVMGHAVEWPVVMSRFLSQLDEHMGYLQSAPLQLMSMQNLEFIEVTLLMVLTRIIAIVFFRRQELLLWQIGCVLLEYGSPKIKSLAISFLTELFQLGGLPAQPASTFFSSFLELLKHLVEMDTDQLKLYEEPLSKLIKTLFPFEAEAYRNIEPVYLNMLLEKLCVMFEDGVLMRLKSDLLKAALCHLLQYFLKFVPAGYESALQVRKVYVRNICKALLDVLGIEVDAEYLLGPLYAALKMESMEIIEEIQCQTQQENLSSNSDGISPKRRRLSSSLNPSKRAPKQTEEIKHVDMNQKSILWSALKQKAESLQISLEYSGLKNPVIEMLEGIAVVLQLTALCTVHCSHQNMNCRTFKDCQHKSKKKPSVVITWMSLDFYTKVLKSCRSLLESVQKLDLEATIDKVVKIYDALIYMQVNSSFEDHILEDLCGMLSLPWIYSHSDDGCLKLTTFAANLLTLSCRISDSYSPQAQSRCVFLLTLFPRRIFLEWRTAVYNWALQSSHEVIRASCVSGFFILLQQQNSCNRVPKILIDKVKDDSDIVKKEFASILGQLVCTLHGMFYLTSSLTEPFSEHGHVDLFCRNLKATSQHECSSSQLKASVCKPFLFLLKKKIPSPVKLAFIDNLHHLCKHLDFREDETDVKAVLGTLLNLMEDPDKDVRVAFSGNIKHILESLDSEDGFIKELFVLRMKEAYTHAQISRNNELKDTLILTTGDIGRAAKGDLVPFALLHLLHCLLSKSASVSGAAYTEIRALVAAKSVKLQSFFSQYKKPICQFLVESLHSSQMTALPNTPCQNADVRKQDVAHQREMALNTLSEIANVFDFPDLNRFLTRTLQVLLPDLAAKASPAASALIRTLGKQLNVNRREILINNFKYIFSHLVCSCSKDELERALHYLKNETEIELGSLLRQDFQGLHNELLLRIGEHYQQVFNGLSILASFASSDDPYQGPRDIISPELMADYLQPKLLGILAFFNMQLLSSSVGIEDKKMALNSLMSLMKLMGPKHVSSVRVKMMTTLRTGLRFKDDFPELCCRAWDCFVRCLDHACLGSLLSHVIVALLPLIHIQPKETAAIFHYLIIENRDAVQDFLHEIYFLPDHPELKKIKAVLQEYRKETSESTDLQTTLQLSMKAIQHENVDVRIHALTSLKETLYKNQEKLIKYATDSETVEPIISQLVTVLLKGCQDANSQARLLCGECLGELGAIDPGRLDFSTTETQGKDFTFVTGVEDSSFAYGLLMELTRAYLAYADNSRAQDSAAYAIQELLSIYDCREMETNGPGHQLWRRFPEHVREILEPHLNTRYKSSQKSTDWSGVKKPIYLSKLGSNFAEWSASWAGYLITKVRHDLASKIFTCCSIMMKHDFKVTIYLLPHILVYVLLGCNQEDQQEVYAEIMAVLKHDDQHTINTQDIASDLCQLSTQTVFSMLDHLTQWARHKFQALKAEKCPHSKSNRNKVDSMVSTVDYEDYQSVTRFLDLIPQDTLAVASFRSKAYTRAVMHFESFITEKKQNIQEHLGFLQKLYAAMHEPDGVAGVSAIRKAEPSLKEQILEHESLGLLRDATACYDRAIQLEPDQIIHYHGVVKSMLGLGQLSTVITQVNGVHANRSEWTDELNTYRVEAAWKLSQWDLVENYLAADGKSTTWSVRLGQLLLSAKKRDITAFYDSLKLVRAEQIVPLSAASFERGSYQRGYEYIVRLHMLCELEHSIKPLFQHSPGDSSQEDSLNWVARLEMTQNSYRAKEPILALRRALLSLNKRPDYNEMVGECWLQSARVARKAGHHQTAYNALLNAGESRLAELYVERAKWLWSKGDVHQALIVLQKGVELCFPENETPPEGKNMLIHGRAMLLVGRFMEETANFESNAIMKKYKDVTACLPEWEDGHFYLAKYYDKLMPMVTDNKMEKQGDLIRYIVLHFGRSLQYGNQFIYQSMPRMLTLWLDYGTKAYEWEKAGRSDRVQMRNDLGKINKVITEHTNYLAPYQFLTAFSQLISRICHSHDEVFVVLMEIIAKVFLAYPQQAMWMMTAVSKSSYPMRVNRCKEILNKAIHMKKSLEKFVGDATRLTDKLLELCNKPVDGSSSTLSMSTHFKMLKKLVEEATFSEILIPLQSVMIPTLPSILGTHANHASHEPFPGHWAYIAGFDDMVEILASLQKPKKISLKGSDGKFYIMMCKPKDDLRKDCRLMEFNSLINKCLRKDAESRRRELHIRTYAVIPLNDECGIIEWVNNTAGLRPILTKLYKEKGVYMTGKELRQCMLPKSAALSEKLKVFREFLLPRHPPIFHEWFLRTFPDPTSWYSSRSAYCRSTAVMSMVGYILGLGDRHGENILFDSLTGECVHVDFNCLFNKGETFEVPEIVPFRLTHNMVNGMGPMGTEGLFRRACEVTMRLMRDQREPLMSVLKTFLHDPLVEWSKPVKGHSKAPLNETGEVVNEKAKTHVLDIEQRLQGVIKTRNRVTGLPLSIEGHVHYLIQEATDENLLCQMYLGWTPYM

[3] = Intrinsic clearance in rat hepatocytes assessed per million cells
[4] = Apparent permeability across apical to basolateral side in MDCK cells overexpressing MDR1; format: ADME, cell-based, Canis lupus familiaris; conditions: dog
[5] = target: Serine-protein kinase ATM (Homo sapiens, UniProt Q13315)
[6] = Thermodynamic solubility of the compound in 0.1M aqueous phosphate buffer at pH 7.4 after 24 hrs by LC-UV analysis; format: physicochemical; conditions: read-out: Therm_solubility
[7] = Buffer/octanol partition coefficient, log D of the compound at pH 7.4 by shake flask method; format: physicochemical
[8] = Intrinsic clearance in human hepatocytes assessed per million cells

## COCc1ccc(-c2cc3c(cc2F)ncc2c3n([C@@H](C)C3CCOCC3)c(=O)n2C)cn1
[1]
  IC50: 15 µM
In vitro
  efflux ratio: 0.8
[2]
  IC50: > 30 µM
[3]
  hepatocyte CLint: 1.6 µL/min/1e6 cells
[4]
  Papp A→B: 270 nm/s
[5]
  IC50: 0.49 µM
[6]
  solubility thermodynamic at 24 h: > 1000 µM
[7]
  logD: 2.7
[8]
  hepatocyte CLint: 22 µL/min/1e6 cells

## Cn1c(=O)n(C2CCOCC2)c2c3cc(-c4ccc(OCCC[N+](C)(C)[O-])nc4)ccc3ncc21
[2]
  IC50: 10 µM
[5]
  IC50: 0.005 µM

## CN(C)CCCOc1ccc(-c2ccc3nnc4c(c3c2)n(C2CCOCC2)c(=O)n4C)cn1
[2]
  IC50: > 30 µM
[3]
  hepatocyte CLint: 2.5 µL/min/1e6 cells
[5]
  IC50: 0.022 µM
[7]
  logD: 0.8
[8]
  hepatocyte CLint: < 1 µL/min/1e6 cells

## CO[C@H]1C[C@@H](n2c(=O)n(C)c3cnc4cc(F)c(-c5ccc(NC(=O)CCCN(C)C)nc5)cc4c32)C1
[1]
  IC50: 18 µM
In vitro
  efflux ratio: 77
[2]
  IC50: > 30 µM
[3]
  hepatocyte CLint: 7 µL/min/1e6 cells
[4]
  Papp A→B: 4 nm/s
[5]
  IC50: 0.0082 µM
[6]
  solubility thermodynamic at 24 h: 870 µM (≈ 441 µg/mL)
[7]
  logD: 1.1
[8]
  hepatocyte CLint: 6.5 µL/min/1e6 cells

## COCc1ccc(-c2cc3c(cc2F)ncc2c3n(C3CCOCC3)c(=O)n2C)cn1
[1]
  IC50: 27 µM
In vitro
  efflux ratio: 0.8
[2]
  IC50: > 20 µM
[3]
  hepatocyte CLint: 7.5 µL/min/1e6 cells
[4]
  Papp A→B: 430 nm/s
[5]
  IC50: 0.45 µM
[6]
  solubility thermodynamic at 24 h: 99 µM (≈ 41.8 µg/mL)
[7]
  logD: 2.4
[8]
  hepatocyte CLint: < 4 µL/min/1e6 cells

## CN(C)CCCOc1ccc(-c2ccc3ncc4c(c3c2)n([C@H]2C[C@@H](O)C2)c(=O)n4C)cn1
[1]
  IC50: > 33 µM
In vitro
  efflux ratio: > 100
[3]
  hepatocyte CLint: 2.7 µL/min/1e6 cells
[4]
  Papp A→B: < 2 nm/s
[6]
  solubility thermodynamic at 24 h: > 1000 µM
[7]
  logD: 1.1
[8]
  hepatocyte CLint: 3.5 µL/min/1e6 cells

## CO[C@H]1C[C@@H](n2c(=O)n(C)c3cnc4ccc(-c5ccc(OCCCN6CCC6)nc5)cc4c32)C1
[1]
  IC50: > 33 µM
In vitro
  efflux ratio: 7.8
[2]
  IC50: > 24 µM
[3]
  hepatocyte CLint: 2.5 µL/min/1e6 cells
[4]
  Papp A→B: 35 nm/s
[6]
  solubility thermodynamic at 24 h: 770 µM (≈ 365 µg/mL)
[7]
  logD: 1.4
[8]
  hepatocyte CLint: 3.3 µL/min/1e6 cells

## CCC(CC)CNc1c(C(N)=O)cnc2cc(F)c(-c3cnc(NCCN4CCCC4)nc3)cc12
In vitro
  efflux ratio: 28
[2]
  IC50: > 30 µM
[4]
  Papp A→B: 8 nm/s
[5]
  IC50: 0.0086 µM
[7]
  logD: 2.8

## CN(C)CCCOc1ccc(-c2cc3c(cc2F)ncc2c3n(C3CCOCC3)c(=O)n2C)cn1
[1]
  IC50: > 33 µM
In vitro
  efflux ratio: 4.4
[3]
  hepatocyte CLint: 8.3 µL/min/1e6 cells
[4]
  Papp A→B: 79 nm/s
[6]
  solubility thermodynamic at 24 h: > 1000 µM
[7]
  logD: 1.5
[8]
  hepatocyte CLint: 6.8 µL/min/1e6 cells

## CO[C@H]1C[C@@H](n2c(=O)n(C)c3cnc4cc(F)c(-c5ccc(NCCN(C)C)nc5)cc4c32)C1
[1]
  IC50: 24 µM
In vitro
  efflux ratio: 11
[2]
  IC50: > 30 µM
[3]
  hepatocyte CLint: 9.6 µL/min/1e6 cells
[4]
  Papp A→B: 34 nm/s
[5]
  IC50: 0.006 µM
[6]
  solubility thermodynamic at 24 h: > 1000 µM
[7]
  logD: 1.7
[8]
  hepatocyte CLint: 2.8 µL/min/1e6 cells

## COCc1ccc(-c2cc3c(N[C@@H](C)c4ccn(C)n4)c(C(N)=O)cnc3cc2F)cn1
In vitro
  efflux ratio: 8.7
[4]
  Papp A→B: 120 nm/s

## CO[C@H]1C[C@@H](n2c(=O)n(C)c3cnc4cc(F)c(-c5ccc(OCCCN(C)C)nc5F)cc4c32)C1
[1]
  IC50: 22 µM
In vitro
  efflux ratio: 2.5
[3]
  hepatocyte CLint: 9 µL/min/1e6 cells
[4]
  Papp A→B: 100 nm/s
[6]
  solubility thermodynamic at 24 h: > 1000 µM
[7]
  logD: 2.1
[8]
  hepatocyte CLint: 14 µL/min/1e6 cells

## COCc1ccc(-c2cc3c(cc2F)ncc2c3n([C@H]3CC[C@H](OC)CC3)c(=O)n2C)cn1
[1]
  IC50: 27 µM
In vitro
  efflux ratio: 0.6
[2]
  IC50: > 26 µM
[3]
  hepatocyte CLint: 10 µL/min/1e6 cells
[4]
  Papp A→B: 200 nm/s
[5]
  IC50: 0.24 µM
[6]
  solubility thermodynamic at 24 h: 84 µM (≈ 37.8 µg/mL)
[7]
  logD: 3.2
[8]
  hepatocyte CLint: 10 µL/min/1e6 cells

## CO[C@H]1C[C@@H](n2c(=O)n(C)c3cnc4ccc(-c5ccc(OCCCN6CCCCC6)nc5)cc4c32)C1
[1]
  IC50: 14 µM
[3]
  hepatocyte CLint: 4 µL/min/1e6 cells
[4]
  Papp A→B: 54 nm/s
[6]
  solubility thermodynamic at 24 h: > 1000 µM
[7]
  logD: 2.2
[8]
  hepatocyte CLint: 3 µL/min/1e6 cells

## CC(C)n1c(=O)n(C2CCOCC2)c2c3cc(-c4cccnc4)ccc3ncc21
[2]
  IC50: > 27.6 µM
[5]
  IC50: > 30 µM
[6]
  solubility thermodynamic at 24 h: 41 µM (≈ 15.9 µg/mL)
[7]
  logD: 2.9

## CO[C@H]1C[C@@H](n2c(=O)n(C)c3cnc4cc(F)c(-c5ccc(N(C)CCN(C)C)nc5)cc4c32)C1
[2]
  IC50: > 30 µM
[3]
  hepatocyte CLint: 18 µL/min/1e6 cells
[4]
  Papp A→B: 63 nm/s
[5]
  IC50: 0.23 µM
[6]
  solubility thermodynamic at 24 h: > 1000 µM
[7]
  logD: 2.2
[8]
  hepatocyte CLint: 5.1 µL/min/1e6 cells

## COCc1ccc(-c2ccc3ncc4c(c3c2)n(C2CCOCC2)c(=O)n4C)cn1
[1]
  IC50: > 33 µM
[2]
  IC50: > 13 µM
[3]
  hepatocyte CLint: 63 µL/min/1e6 cells
[4]
  Papp A→B: 320 nm/s
[6]
  solubility thermodynamic at 24 h: 19 µM (≈ 7.68 µg/mL)
[7]
  logD: 2.3
[8]
  hepatocyte CLint: < 3 µL/min/1e6 cells

## CN(C)CCCOc1ccc(-c2ccc3ncc4c(c3c2)n(C2COC2)c(=O)n4C)cn1
[1]
  IC50: > 33 µM
In vitro
  efflux ratio: 9.8
[3]
  hepatocyte CLint: 7.8 µL/min/1e6 cells
[4]
  Papp A→B: 32 nm/s
[6]
  solubility thermodynamic at 24 h: 52 µM (≈ 22.5 µg/mL)
[7]
  logD: 0.7
[8]
  hepatocyte CLint: < 1 µL/min/1e6 cells

## CO[C@H]1C[C@@H](n2c(=O)n(C)c3cnc4cc(F)c(-c5ccc(CS(C)(=O)=O)nc5)cc4c32)C1
[1]
  IC50: 14 µM
In vitro
  efflux ratio: 2.4
[2]
  IC50: > 16 µM
[3]
  hepatocyte CLint: 2.4 µL/min/1e6 cells
[4]
  Papp A→B: 140 nm/s
[5]
  IC50: 0.16 µM
[6]
  solubility thermodynamic at 24 h: 18 µM (≈ 8.47 µg/mL)
[7]
  logD: 1.3

## CN(C)CCCOc1ccc(-c2ccc3ncc4c(c3c2)n([C@H]2CCCOC2)c(=O)n4C)cn1
[1]
  IC50: 27 µM
[3]
  hepatocyte CLint: 3 µL/min/1e6 cells
[4]
  Papp A→B: 65 nm/s
[6]
  solubility thermodynamic at 24 h: > 1000 µM
[7]
  logD: 1.8
[8]
  hepatocyte CLint: 6.1 µL/min/1e6 cells

## O=c1[nH]c2cnc3ccc(-c4cccnc4)cc3c2n1C1CCOCC1
[2]
  IC50: 0.051 µM
[6]
  solubility thermodynamic at 24 h: 12 µM (≈ 4.16 µg/mL)
[7]
  logD: 2.4

## CN(C)CCCOc1ccc(-c2ccc3ncc4c(c3n2)n(C2CCOCC2)c(=O)n4C)cn1
[2]
  IC50: 2 µM
[3]
  hepatocyte CLint: 9.2 µL/min/1e6 cells
[5]
  IC50: 0.0017 µM
[7]
  logD: 1.6
[8]
  hepatocyte CLint: 12.8 µL/min/1e6 cells

## Cn1c(=O)n([C@H]2CCCOC2)c2c3cc(-c4ccc(OCCCN5CCCCC5)nc4)c(F)cc3ncc21
[1]
  IC50: 18 µM
In vitro
  efflux ratio: 1.4
[3]
  hepatocyte CLint: 6.2 µL/min/1e6 cells
[4]
  Papp A→B: 71 nm/s
[5]
  IC50: 0.0011 µM
[6]
  solubility thermodynamic at 24 h: 330 µM (≈ 171 µg/mL)
[7]
  logD: 2.4
[8]
  hepatocyte CLint: 4 µL/min/1e6 cells

## CO[C@H]1C[C@@H](n2c(=O)n(C)c3cnc4cc(F)c(-c5ccc(CO)nc5)cc4c32)C1
[1]
  IC50: 23 µM
In vitro
  efflux ratio: 1.1
[2]
  IC50: 15 µM
[3]
  hepatocyte CLint: 5 µL/min/1e6 cells
[4]
  Papp A→B: 290 nm/s
[5]
  IC50: 0.23 µM
[6]
  solubility thermodynamic at 24 h: 23 µM (≈ 9.39 µg/mL)
[7]
  logD: 2

## CN(C)CCCOc1ccc(-c2ccc3ncc4c(c3c2)n([C@@H]2CCCOC2)c(=O)n4C)cn1
[1]
  IC50: > 33 µM
[2]
  IC50: > 23 µM
[3]
  hepatocyte CLint: 3.7 µL/min/1e6 cells
[4]
  Papp A→B: 75 nm/s
[6]
  solubility thermodynamic at 24 h: > 1000 µM
[7]
  logD: 1.8
[8]
  hepatocyte CLint: 5.6 µL/min/1e6 cells

## CO[C@H]1C[C@@H](n2c(=O)n(C)c3cnc4ccc(-c5ccc(OCCCN(C)C)nc5F)cc4c32)C1
[1]
  IC50: > 33 µM
[3]
  hepatocyte CLint: 9.3 µL/min/1e6 cells
[4]
  Papp A→B: 42 nm/s
[6]
  solubility thermodynamic at 24 h: > 1100 µM
[7]
  logD: 2
[8]
  hepatocyte CLint: 15 µL/min/1e6 cells
